In the test the test system is Plasmodium berghei. Description: Luciferase/luciferin-expressing antifolate-resistant parasites were used to infect a culture of HepG2 cells that were pre-incubated with compounds. Infected hepatocytes emit light due to the luciferase reaction. Assay results are presented as the percent inhibition of light emission compared to control. […]. In kind it is functional. To be noted: sporozoite; for IC90: read-out: LUCIFERASE INFECTION ASSAY - IC90.

Setting [1] is: read-out: LUCIFERASE INFECTION ASSAY - IC50.

Structures are written as SMILES. Where only a bound is given, the exact number is not on record here.

One may read the IC50 as the concentration that gives 50% inhibition. For orientation: IC90 means the concentration at which the effect reaches the 90% level.

As for `CN(C)CCCOc1ccc(-c2ccc(C(C)(C)C)cc2)cn1`, the IC90 is above 10.6 µM. Under “PBLUC_HILL_SLOPE 0.428, PBLUC_R_SQUARED 0.727, read-out: LUCIFERASE INFECTION ASSAY - IC50”, the IC50 is 0.0859 µM.
`Cc1cc(C)c(-c2csc(NC(=O)c3ccccc3SCC(=O)NCC3CCCCC3)n2)cc1C`: the IC90 turned out to be 4.99 µM. For the same molecule, the IC50 (FFLUC_HILL_SLOPE 1.8, FFLUC_R_SQUARED 0.211, HEPG2TOX_HILL_SLOPE 0.456, HEPG2TOX_R_SQUARED 0.807, PBLUC_HILL_SLOPE 10.4, PBLUC_R_SQUARED 0.477, read-out: LUCIFERASE INFECTION ASSAY - IC50) turned out to be 4.04 µM.
For `CC(C)(C)c1ccc(OCc2nc(=O)cc(Nc3ccccc3Cl)[nH]2)cc1`, the IC90 was above 8.6 µM. The IC50 (FFLUC_HILL_SLOPE 11.4, FFLUC_R_SQUARED 0.169, HEPG2TOX_HILL_SLOPE 0.949, HEPG2TOX_R_SQUARED 0.863, read-out: LUCIFERASE INFECTION ASSAY - IC50) is above 8.6 µM.
As to `Cc1noc(-c2ccc(Cl)cc2)c1C(=O)ONC(=N)c1ccc(C(F)(F)F)cc1`, the 90% effect concentration (IC90) is above 7.79 µM. Further, under setting [1], the IC50 is above 7.79 µM.
For `N#C/C(=N\Nc1ccc(F)c(Cl)c1)C(=O)c1ccc(Cl)cc1`, the IC90 stood at 1.26 µM. Also, the IC50 under setting [1] was 1.07 µM.
On to `Cc1cc(C)n(-c2nc(-c3ccccc3)cc(N3CCCCCC3)n2)n1`, for which the IC90 was 7.45 µM. In addition, the IC50 (PBLUC_HILL_SLOPE 3.96, PBLUC_R_SQUARED 0.269, read-out: LUCIFERASE INFECTION ASSAY - IC50) was determined as 4.28 µM.
For `O=C(CN1CCN(C(=O)/C=C/c2sc3ccccc3c2Cl)CC1)NC1CC1`, the IC90 is 8.7 µM. Moreover, the IC50 (PBLUC_HILL_SLOPE 3.79, PBLUC_R_SQUARED 0.282, read-out: LUCIFERASE INFECTION ASSAY - IC50) was found to be 4.87 µM.
On to `O=C(c1ccoc1)N1CCN(Cc2sc3ccccc3c2Cl)CC1`, for which the IC90 was above 10 µM. In addition, the IC50 under setting [1] is above 10 µM.
With `CNc1nc2cnc(-c3cccc(OC(F)(F)F)c3)cc2n1-c1cccc(F)c1`, the IC90 was above 10 µM. Besides, for the setting “PBLUC_HILL_SLOPE 15.2, PBLUC_R_SQUARED 0.218, read-out: LUCIFERASE INFECTION ASSAY - IC50”, the IC50 turned out to be 9.01 µM.
`CCC1CCCCN1C(=O)COC(=O)c1cc(C(C)(C)C)cc(C(C)(C)C)c1` (stereo unspecified): the IC90 was above 10 µM. In addition, the IC50 under setting [1] is above 10 µM.
With `CCSc1ccccc1C(=O)Nc1ccc(C(=O)OC)cc1`, the IC90 is above 10.5 µM. In addition, the IC50 under setting [1] was above 10.5 µM.
Consider `CC(NC(=O)c1cnn(-c2ccc(C(F)(F)F)cn2)c1C(F)(F)F)C1CC2CCC1C2` (stereo unspecified), for which the IC90 worked out at 5.3 µM. The IC50 (HEPG2TOX_HILL_SLOPE 11.2, HEPG2TOX_R_SQUARED 0.292, PBLUC_HILL_SLOPE 7.94, PBLUC_R_SQUARED 0.51, read-out: LUCIFERASE INFECTION ASSAY - IC50) was determined as 4.02 µM.
With `Cc1c(Cl)cc(NC(=O)Nc2ccccc2)c(O)c1Cl`, the IC90 is above 10.6 µM. Also, the IC50 (PBLUC_HILL_SLOPE 11.8, PBLUC_R_SQUARED 0.519, read-out: LUCIFERASE INFECTION ASSAY - IC50) is 9.83 µM.
For `O=C(CNc1ccccc1-c1ccccc1)NCC(F)(F)F`, the IC90 is above 10 µM. Besides, the IC50 under setting [1] was above 10 µM.
On to `c1ccc(NCc2ccc(-c3cn4c(-c5ccccc5)cnc4cn3)cc2)cc1`, for which the IC90 was above 8.77 µM. Moreover, the IC50 (FFLUC_HILL_SLOPE 2.57, FFLUC_R_SQUARED 0.0602, PBLUC_HILL_SLOPE 15.1, PBLUC_R_SQUARED 0.239, read-out: LUCIFERASE INFECTION ASSAY - IC50) was determined as 7.8 µM.
In the case of `O=C(c1cc(C(=O)N2CCCC2)c2nc3scc(-c4ccccc4)c3c(=O)n2c1)c1ccccc1O`, the IC90 is above 10 µM. For the same molecule, the IC50 under setting [1] is above 10 µM.
Turning to `Fc1ccc(-c2ccnc3n[nH]c(C4CC4)c23)cc1Cl`, the concentration for an effect of 90% (IC90) was above 10 µM. The IC50 (HEPG2TOX_HILL_SLOPE 9.31, HEPG2TOX_R_SQUARED 0.217, read-out: LUCIFERASE INFECTION ASSAY - IC50) was above 10 µM.
Regarding `CCOC(=O)c1csc(-c2sc(SC)c(C(C)=O)c2C)n1`, the IC90 is above 9.66 µM. The IC50 under setting [1] was above 9.66 µM.
With `CC1(C)C=Cc2cc(/C(N)=N/OC(=O)c3ccccc3)ccc2O1`, the IC90 stood at 0.211 µM. For the same molecule, for the setting “FFLUC_HILL_SLOPE 1.86, FFLUC_R_SQUARED 0.604, PBLUC_HILL_SLOPE 0.872, PBLUC_R_SQUARED 0.782, read-out: LUCIFERASE INFECTION ASSAY - IC50”, the IC50 stood at 0.0169 µM.
On to `COCCCn1c(SCc2ccc(C)cc2)nnc1-c1ccc(C(C)(C)C)cc1`, for which the IC90 was above 8.06 µM. In addition, the half-maximal inhibitory concentration (IC50) (PBLUC_HILL_SLOPE 1.28, PBLUC_R_SQUARED 0.571, read-out: LUCIFERASE INFECTION ASSAY - IC50) was above 8.06 µM.
Take `O=C1CCCN1c1cccc(Oc2nc(-c3cccnc3)nc3ccccc23)c1`: the IC90 is above 10 µM. Moreover, the 50% inhibitory concentration (IC50) under setting [1] is above 10 µM.
`Cc1nn(-c2ccc(C(=O)N(Cc3ccccc3)Cc3nc(=O)c4ccccc4[nH]3)cc2)c(C)c1Cl`: the IC90 stood at 3.52 µM. The IC50 (PBLUC_HILL_SLOPE 3.8, PBLUC_R_SQUARED 0.516, read-out: LUCIFERASE INFECTION ASSAY - IC50) worked out at 1.98 µM.
On to `O=C(Nc1nc2ccccn2c1C(=O)NC1CCCCC1)c1ccccc1Cl`, for which the IC90 was determined as 8.12 µM. For the same molecule, the IC50 (FFLUC_HILL_SLOPE 10.6, FFLUC_R_SQUARED 0.389, HEPG2TOX_HILL_SLOPE 7.19, HEPG2TOX_R_SQUARED 0.725, PBLUC_HILL_SLOPE 14.8, PBLUC_R_SQUARED 0.156, read-out: LUCIFERASE INFECTION ASSAY - IC50) came out at 7 µM.
On to `CSc1nc(N2CCNCC2)c2sc3c(c2n1)CCCC3`, for which the concentration for an effect of 90% (IC90) is above 10.3 µM. Further, for the setting “PBLUC_HILL_SLOPE 1.21, PBLUC_R_SQUARED 0.0625, read-out: LUCIFERASE INFECTION ASSAY - IC50”, the IC50 is above 10.3 µM.
In the case of `CCn1c(NC(=O)c2[nH]nc3ccccc23)nc2ccccc21`, the IC90 is above 10 µM. Further, the half-inhibitory concentration (IC50) (HEPG2TOX_HILL_SLOPE 8.17, HEPG2TOX_R_SQUARED 0.11, PBLUC_HILL_SLOPE 5.04, PBLUC_R_SQUARED 0.686, read-out: LUCIFERASE INFECTION ASSAY - IC50) stood at 7.76 µM.
As to `C/C(=N\NC(=S)Nc1cccc(Cl)c1C)c1cccc(C(F)(F)F)c1`, the IC90 was above 10 µM. Further, the IC50 (HEPG2TOX_HILL_SLOPE 2.50, 1.90, HEPG2TOX_R_SQUARED 0.489, 0.932, PBLUC_HILL_SLOPE 2.58, PBLUC_R_SQUARED 0.215, read-out: LUCIFERASE INFECTION ASSAY - IC50) stood at 7.21 µM.
Take `CCC(C)(C)c1ccc(Oc2ccc(NC(=O)COC(=O)c3cc(-c4cc(OC)c(OC)c(OC)c4)nc4ccccc34)cc2)cc1`: the IC90 was above 10 µM. Moreover, the IC50 (PBLUC_HILL_SLOPE 0.863, PBLUC_R_SQUARED 0.508, read-out: LUCIFERASE INFECTION ASSAY - IC50) amounted to 2.17 µM.
On to `COc1cccc(C(=O)Nc2ccc3nc(-c4cc(OC)c(OC)c(OC)c4)nn3c2)c1`, for which the IC90 was found to be 7.64 µM. In addition, where the note is “PBLUC_HILL_SLOPE 1.78, PBLUC_R_SQUARED 0.523, read-out: LUCIFERASE INFECTION ASSAY - IC50”, the IC50 was determined as 2.22 µM.
On to `COc1cc(/C=C/C(=O)Oc2c(Cl)cc(Cl)c3ccc(C)nc23)cc(OC)c1OC`, for which the IC90 amounted to 3.54 µM. Moreover, under “HEPG2TOX_HILL_SLOPE 1.48, HEPG2TOX_R_SQUARED 0.88, PBLUC_HILL_SLOPE 12.1, PBLUC_R_SQUARED 0.667, read-out: LUCIFERASE INFECTION ASSAY - IC50”, the IC50 amounted to 2.95 µM.
On to `CCN(Cc1ccc(OCc2ccccc2)cc1)C(=O)CN1CCc2cc(S(N)(=O)=O)ccc21`, for which the IC90 is above 10 µM. Moreover, the IC50 (HEPG2TOX_HILL_SLOPE 0.311, HEPG2TOX_R_SQUARED 0.495, read-out: LUCIFERASE INFECTION ASSAY - IC50) was above 10 µM.
As for `O=C1C(=C(O)c2ccc(OC(F)F)cc2)Sc2ccccc21`, the IC90 was above 10 µM. Also, the IC50 (PBLUC_HILL_SLOPE 4.86, PBLUC_R_SQUARED 0.465, read-out: LUCIFERASE INFECTION ASSAY - IC50) turned out to be 9.12 µM.
As for `CN(Cc1ccccc1)S(=O)(=O)c1ccc(Cl)c(C(=O)Nc2nnc(C(F)(F)F)[nH]2)c1`, the IC90 came to 7.66 µM. Besides, under “PBLUC_HILL_SLOPE 3.05, PBLUC_R_SQUARED 0.465, read-out: LUCIFERASE INFECTION ASSAY - IC50”, the IC50 amounted to 3.73 µM.
In the case of `Cc1ccc(-n2ncc(C(=O)OCc3nc(N)nc(N(C)C)n3)c2C(C)C)cc1`, the 90% effect concentration (IC90) is above 10 µM. Also, where the note is “PBLUC_HILL_SLOPE 2.99, PBLUC_R_SQUARED 0.678, read-out: LUCIFERASE INFECTION ASSAY - IC50”, the IC50 is 6.36 µM.
In the case of `c1nc(NCc2ccc(CN3CCOCC3)cc2)c2sccc2n1`, the IC90 is above 10 µM. In addition, the IC50 (HEPG2TOX_HILL_SLOPE 1.44, HEPG2TOX_R_SQUARED 0.736, PBLUC_HILL_SLOPE 1.22, PBLUC_R_SQUARED 0.605, read-out: LUCIFERASE INFECTION ASSAY - IC50) worked out at 2.88 µM.
Consider `OC(CNCCc1ccc(Cl)cc1Cl)COc1ccccc1` (stereo unspecified), for which the IC90 was above 10 µM. Further, under setting [1], the IC50 was above 10 µM.
Take `O=S(=O)(Oc1ccc2oc3ccccc3c2c1)c1ccccc1F`: the IC90 was above 10 µM. The IC50 under setting [1] is above 10 µM.
`N#CC(C#N)=NNc1ccccc1Oc1ccc(Cl)cc1Cl`: the concentration for an effect of 90% (IC90) was above 9.96 µM. In addition, the half-maximal inhibitory concentration (IC50) (FFLUC_HILL_SLOPE 1.54, FFLUC_R_SQUARED 0.588, HEPG2TOX_HILL_SLOPE 1.18, HEPG2TOX_R_SQUARED 0.604, read-out: LUCIFERASE INFECTION ASSAY - IC50) is above 9.96 µM.
With `COc1ccc(Sc2ccc(NC(=O)c3ccc(F)cc3)cc2C#N)cc1`, the IC90 was above 8.72 µM. For the same molecule, the IC50 under setting [1] is above 8.72 µM.

Values taken from ChEMBL document CHEMBL4483862, “Open-source discovery of chemical leads for next-generation chemoprotective antimalarials” (2018).
